The source of these data is ChEMBL document CHEMBL1146443, “New indole derivatives with free radical scavenging activity from Agrocybe cylindracea” (J Nat Prod, 1997).

A word on the IC50: it is the concentration needed to halve the response being measured.

The test system of assay [1] is Liver microsomes. As to the kind of experiment: Inhibition of lipid peroxidation in rat liver microsome at 50 ug/mL. Type of assay: functional. For orientation: Liver microsomes are a subcellular fraction often used to study metabolism.
Assay [2] deals with Liver microsomes. As to the kind of experiment: Inhibition of lipid peroxidation in rat liver microsome. It is filed as functional.

In brackets after ≈: the same amount, converted by molar mass. Activity calls are given as the source filed them. The rule behind the calls is not given here.

As for `O=C(O)Cc1c[nH]c2ccccc12`, the result in the assay on Liver microsomes [1] was inactive.
In the assay on Liver microsomes [2], `O=Cc1c[nH]c2cc(O)ccc12` displayed an IC50 of 4.1 mg/L (≈ 25.4 µM).
On to `NC(=O)Cc1c[nH]c2cc(O)ccc12`, for which, in the assay with Liver microsomes [2], the IC50 was determined as 3.9 mg/L (≈ 20.5 µM).
